In paper PMC8786932, “Bicyclic azetidines target acute and chronic stages of Toxoplasma gondii by inhibiting parasite phenylalanyl t-RNA synthetase” (Nature Communications, 2022):
Values joined by “and” are separate entries in the source; they are usually repeats but may differ in a detail not shown here. Equal entries are not always repeated. Where two headings read alike, the source gives them in different places.

Key:
[1] = target: T. gondii tachyzoites (type II ME49-FLuc); assay: Luciferase-based tachyzoite growth assay; type: cell-based, Toxoplasma gondii; design: EC50 log inhib vs normalized response: unit: µM; settings: for EC50 log inhib vs normalized response: Fig 1A rank order, T. gondii growth
Experimental: All assays were carried out in a 96-well plate format containing confluent HFF monolayers to support parasite growth. To avoid edge effects, only the inner 60 wells of each plate were used. All compounds described were provided by the Broad Institute as 10 mM stocks in 100% DMSO and stored at −80 °C prior to use. Pyrimethamine (Sigma-Aldrich) was prepared as 5 mM stock in 100% DMSO and stored at −20 °C prior to use.
All statistical analyses were conducted using Prism 9 (GraphPad Software, Inc.). Dose–response inhibition curves for parasite and host cell toxicity screens (EC50 values) were generated using (Log(inhibitor) vs. normalized response—Variable slope) function. […] For multiple comparisons, two-way ANOVA analysis function using either Sidák’s multiple comparisons test or Dunnett’s multiple comparisons test was applied as indicated.

[2] = target: N. caninum expressing lacZ; assay: Neospora caninum β-galactosidase assay; type: cell-based
Experimental: β-galactosidase assays were conducted using tissue culture grade 96-well plates (TPP) containing confluent monolayers of HFF cells. A 10-point compound dilution series (2-fold) for each compound was generated as described above (2X concentration, 0.1% final DMSO). Growth of the N. caninum strain expressing lacZ was monitoring using a β-galactosidase (β-gal) assay as described in[21] with the following modifications. N. caninum lacZ expressing parasites (1 × 10^3) were added (in 100 μL volume) into 96-well plates containing HFF monolayers to reach final compound concentration (5.0 μM to 0.002 μM in 200 μL total volume). Plates were incubated at 37 °C, 5% CO2 for 72 h prior to completing β-gal assay as previously described[23],[27],[51]. Briefly, parasite containing monolayers were lysed with 1.0% Triton X-100 and β-gal activity determined by adding 1 mM chlorophenolred-β-D-galactopyranoside followed by monitoring absorption at 570 nm on a Cytation 3 multi-mode imager (BioTek), as described.

[3] = system: C. parvum; settings: Fig 2A Tg_Pf_Cp EC50s; previously reported values, reference not visible in the shown part; cited from earlier work
[4] = system: blood-stage P. falciparum; settings: Fig 2A Tg_Pf_Cp EC50s; previously reported values, reference not visible in the shown part; cited from earlier work
[5] = system: ex vivo T. gondii ME49-FLuc bradyzoites from tissue cysts of chronically infected mice; assay: Ex vivo bradyzoite treatment assay (plaque assay); type: cell-based, Toxoplasma gondii; settings: Fig 5H top 4, replicates, listed as Pyr
Experimental: The brains from CBA/J mice chronically infected with the ME49-FLuc strain were harvested, homogenized, and tissue cysts isolated on Percoll gradients, as described previously[9],[27]. Following isolation, purified tissue cysts were treated with acid-pepsin solution ([…] sodium chloride (NaCl), 60 mM hydrochloric acid (HCl) and freshly made pepsin (0.1 mg/mL in 1xPBS) for 10 min at 37 °C. Following acid-pepsin treatment and addition of neutralization buffer (94 mM sodium carbonate (Na2CO3), liberated bradyzoites were equally distributed into 6-well plates with 5 mL culture media containing compounds or vehicle control (0.1–0.2% DMSO final concentration). Plates were incubated undisturbed for 12–14 days followed by fixation in 100% ethanol (ETOH) for 5 min at RT, rinsing with tap water, staining in 0.1% crystal violet solution for 10 min at RT, rinsing in water and air drying. Plaques were quantified on a Zeiss AxioObserver microscope equipped with a ×2.5 objective (Department of Molecular Microbiology Imaging Facility at the Washington University School of Medicine).

[6] = system: T. gondii ME49-FLuc tissue cysts; type: in vivo, Ifngr1-/- mice; settings: mouse, in vivo
Experimental: (§1) Ifngr1^−/− (B6.129S7-Ifngr1 ^tm1Agt /J) and CBA/J mice were purchased from Jackson Laboratory and bred locally at Washington University. Animal studies were conducted according to the U.S. Public Health Service policy on human care and use of laboratory animals. Animals were maintained in facilities approved by the Association for Assessment and Accreditation of Laboratory Animal Care. Studies were approved by Division of Comparative Medicine, Washington University. […] Animals were maintained on a 12:12 light cycle, room temperature maintained at 70℉ ± 2℉, and room humidity maintained at 50% ± 20%.
(§2) Testing of compounds to prevent reactivation of chronic infection was […] to test the efficacy of PheRS inhibitors against chronic infection. In both cases, male and female C57BL/6 Ifngr1^−/− mice were infected by oral gavage with 5 cysts of the ME49-Fluc strain isolated from chronically infected CBA/J mice. […] Animals were monitored for survival and weight loss for 30 days post-treatment.

[7] = system: T. gondii ME49-FLuc chronic infection; type: in vivo, Ifngr1-/- mice; settings: mouse, in vivo
Experimental: as §1, §2

[8] = Fig S2 source data, read-out: T. gondii (EC50, Fig S2 source data)
[9] = Table S1, ME49-FLuc tachyzoites, read-out: T. gondii EC50
[10] = Fig S2 source data, read-out: N. caninum (EC50, Fig S2 source data)
[11] = Table S3, 72 h, lacZ, read-out: N. caninum EC50
[12] = Fig 2A Tg_Pf_Cp EC50s, read-out: EC50 T. gondii
[13] = Toxoplasma gondii, Fig. 2b, stereoisomers of BRD3444, mean of two biological replicates, read-out: Tg EC50
[14] = Toxoplasma gondii, Table S1, ME49-FLuc tachyzoites, read-out: T. gondii EC50

SMILES	EC50 log inhib vs normalized response [1]	EC50 [1, 9] [nM]	EC50 [4] [nM]	EC50 [1, 12] [nM]	EC50 [1, 14] [nM]	further results
COc1ccc(NC(=O)N2CCCCN3C[C@H](c4ccc(C#Cc5ccccc5)cc4)[C@@H]3C2)cc1 [BRD3914]	0.07697	76	13			EC50 [1, 8]: 77 nM; EC50 [2, 10]: 193 nM; EC50 [2, 11]: 193 nM; EC50 [3]: 62 nM
COc1ccc(NC(=O)N2CCCCN3[C@H](CN4CCC4)[C@H](c4ccc(C#Cc5ccccc5)cc4)[C@@H]3C2)cc1 [BRD8493]	0.4416	441	116	442		
COc1ccc(NC(=O)N2CCCCN3[C@@H](CO)[C@H](c4ccc(C#Cc5ccccn5)cc4)[C@@H]3C2)cc1 [BRD9257]	0.6463	646	155	646		
COc1ccc(NC(=O)N2CCCCN3[C@H](C2)[C@H](c2ccc(C#Cc4ccccc4)cc2)[C@@H]3CO)cc1 [BRD4569]	3.376				3380	EC50 [1, 13]: 3370 nM
COc1ccc(NC(=O)N2CCCCCN3[C@H](CO)[C@H](c4ccc(C#Cc5ccccc5)cc4)[C@@H]3C2)cc1 [BRD0185]	0.1693	169	87			EC50 [1, 8]: 169 nM; EC50 [2, 10]: 156 nM; EC50 [2, 11]: 156 nM; EC50 [3]: 33 nM
COc1ccc(NC(=O)N2CCCCN3[C@@H](CO)[C@H](c4ccc(C#Cc5ccccc5)cc4)[C@@H]3C2)cc1 [BRD9995]	0.1187				118	EC50 [1, 13]: 119 nM
COc1ccc(NC(=O)N2CCCCN3[C@H](CN4CCN(C)CC4)[C@H](c4ccc(C#Cc5ccccc5)cc4)[C@@H]3C2)cc1 [BRD6479]	0.4249	424	158	425		
COc1ccc(NC(=O)N2CCCCN3[C@H](CO)[C@@H](c4ccc(C#Cc5ccccc5)cc4)[C@@H]3C2)cc1 [BRD2574]	1.487				1490	
COc1ccc(NC(=O)N2C[C@@H](O)[C@@H](O)CN3[C@H](CN(C)C)[C@H](c4ccc(C#Cc5ccccc5)cc4)[C@@H]3C2)cc1 [BRD5018]	0.03927	39	13			EC50 [1, 8]: 39.3 nM; EC50 [2, 10]: 29.9 nM; EC50 [2, 11]: 29 nM
COc1ccc(NC(=O)N2CCCCN3[C@H](CO)[C@@H](c4ccc(C#Cc5ccccc5)cc4)[C@H]3C2)cc1 [BRD8194]	2.955				2960	
O=C(NC1CCC1)N1CCCCN2[C@H](CO)[C@H](c3ccc(C#Cc4ccccc4)cc3)[C@@H]2C1 [BRD8260]	2.575		19500	2580		
COc1ccc(NC(=O)N2CCCCN3[C@H](C2)[C@@H](c2ccc(C#Cc4ccccc4)cc2)[C@@H]3CO)cc1 [BRD3801]	4.096				4100	
O=C(Nc1cccc(F)c1)N1CCCCN2[C@H](CO)[C@H](c3ccc(C#Cc4cccnc4)cc3)[C@@H]2C1 [BRD5999]	0.4926	492				
COc1ccc(NC(=O)N2CCCCN3[C@@H](CO)[C@@H](c4ccc(C#Cc5ccccc5)cc4)[C@@H]3C2)cc1 [BRD2430]	1.548				1550	
CCc1nc(N)nc(N)c1-c1ccc(Cl)cc1 [Pyrimethamine, reference compound]	0.2476				247	EC50 ([1]; Toxoplasma gondii, ME49-FLuc, 10-point dose-response, two biological replicates, read-out: EC50, T. gondii tachyzoite growth): 248 nM; Ex vivo bradyzoite plaques, normalised to DMSO = 100 ([5]; Constant treatment): 2.0 and 0.5 and 1.9; Ex vivo bradyzoite plaques, normalised to DMSO = 100 ([5]; Washout): 115.2 and 93 and 95.5
COc1ccc(NC(=O)N2CCCN3[C@H](CO)[C@H](c4ccc(C#Cc5ccccc5)cc4)[C@@H]3C2)cc1 [BRD9599]	1.748		850	1750		EC50 [3]: 250 nM
COc1ccc(NC(=O)N2CCCCN3[C@H](CO)[C@H](c4ccc(C#Cc5ccccc5)cc4)[C@H]3C2)cc1 [BRD3182]	1.697				1700	
COc1ccc(NC(=O)N2CCCCN3[C@H](CO)[C@H](c4ccc(C#Cc5ccccc5)cc4)[C@]3(CO)C2)cc1 [BRD2936]	1.687		1870	1690		EC50 [3]: 1080 nM
OC[C@@H]1[C@H](c2ccc(C#Cc3ccccc3)cc2)[C@@H]2CN(c3nc4ccccc4s3)CCCCN12 [BRD5349]	3.944		8320	3940		
COc1ccc(NC(=O)N2CCCCN3[C@H](CO)[C@H](c4ccc(C#Cc5ccccc5C#N)cc4)[C@@H]3C2)cc1 [BRD4873]	0.2134	213	261	213		
Nc1ccc(S(=O)(=O)Nc2ncccn2)cc1 [sulfadiazine, reference compound]						mean survival [6]: 10 days; Days (survival time of single mouse) [7]: 7 days and 9 days and 29 days and 11 days and 5 days; Survival event flag of single mouse (1 or 0) [7]: 1 and 0
COc1ccc(NC(=O)N2CCCCN3[C@H](CO)[C@H](c4ccc(C#CC5CC5)cc4)[C@@H]3C2)cc1 [BRD5774]	1.609		12200	1610		
